According to US10945966B2, “PEGylated lipid nanoparticle with bioactive lipophilic compound” (Eyesiu Medicines B.V., priority 2015, dated 2021):

System: imiquimod (IMQ)-induced psoriasis-like skin inflammation
Experiment: Imiquimod (IMQ)-induced psoriasis-like skin inflammation
Assay type: in vivo, mice
Settings: daily topical
Experimental: A nanoparticle composition comprising the macrolide tacrolimus was produced as detailed in Example 2. The resulting composition was formulated in a spray suitable for topical delivery on the skin. The efficacy of the produced nanoparticles was subsequently tested in an imiquimod (IMQ)-induced psoriasis-like skin inflammation in mice. To this end, psoriasis-like skin inflammation was induced on the ears and shaved backs of the mice by the daily application of 50 mg of 5% Imiquimod (IMQ) cream. Compared to naïve mice, animals treated with IMQ developed clinical signs of disease including statistically significant increases in psoriasis clinical score and ear thickness over time as well as increased spleen weight (splenomegaly) upon termination of the experiment.

For C[C@H]1C[C@H]2[C@@H]3CCC4=CC(=O)C=C[C@]4(C)[C@@]3(F)[C@@H](O)C[C@]2(C)[C@@]1(O)C(=O)CCl [Clobetasol], the body weight (unwanted side effect) was “significant reduction”, the spleen weight (compared to IMQ-only treated mice) was “significantly reduced” and the psoriasis clinical score (compared to IMQ-only treated mice, significant by day 3 and throughout the rest of the study) was “significantly reduced”. The ear thickness (compared to IMQ-only treated mice, significant by day 5 and throughout the rest of the study) was “significantly reduced”.
